From US8192962B2, “Processes for detecting toxic substances” (Daikin Industries, Ltd., priority 2001, dated 2012)

Tested on: Genes belonging to other category
Assay: DNA chip mRNA expression in yeast, genes belonging to other category (Table 9)
Format: cell-based, Saccharomyces cerevisiae S288C
How it was run: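 First, S288C yeast grown in YPD at 25° C. are dosed in log phase with one toxicant (growth-inhibiting, not lethal) for 2 h. Next, total RNA is extracted and poly(A) mRNA isolated and reverse-transcribed with Cy3/Cy5-dUTP. Finally, whole-genome chip fluorescence is read relative to unexposed cells.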

S=C([S-])NCCNC(=S)[S-].[Zn+2] [(11), zinc N,N′-ethylenebis(dithiocarbamate)]
The level of expressed mRNA in the presence of chemical substance/The level of expressed mRNA in the absence of chemical substance (yeast gene YJL141C): 1.2
The level of expressed mRNA in the presence of chemical substance/The level of expressed mRNA in the absence of chemical substance (yeast gene YJR004C): 0.7
The level of expressed mRNA in the presence of chemical substance/The level of expressed mRNA in the absence of chemical substance (yeast gene YJR058C): 1.2
The level of expressed mRNA in the presence of chemical substance/The level of expressed mRNA in the absence of chemical substance (yeast gene YJR069C): 0.9
The level of expressed mRNA in the presence of chemical substance/The level of expressed mRNA in the absence of chemical substance (yeast gene YJR086W): 1.0
The level of expressed mRNA in the presence of chemical substance/The level of expressed mRNA in the absence of chemical substance (yeast gene YKL008C): 1.5
The level of expressed mRNA in the presence of chemical substance/The level of expressed mRNA in the absence of chemical substance (yeast gene YKL013C): 1.1
The level of expressed mRNA in the presence of chemical substance/The level of expressed mRNA in the absence of chemical substance (yeast gene YKL039W): 1.0
The level of expressed mRNA in the presence of chemical substance/The level of expressed mRNA in the absence of chemical substance (yeast gene YKL041W): 1.2
The level of expressed mRNA in the presence of chemical substance/The level of expressed mRNA in the absence of chemical substance (yeast gene YKL079W): 1.3
The level of expressed mRNA in the presence of chemical substance/The level of expressed mRNA in the absence of chemical substance (yeast gene YKL096W): 3.5
The level of expressed mRNA in the presence of chemical substance/The level of expressed mRNA in the absence of chemical substance (yeast gene YKL097W-A): 1.6
The level of expressed mRNA in the presence of chemical substance/The level of expressed mRNA in the absence of chemical substance (yeast gene YKL139W): 1.4
The level of expressed mRNA in the presence of chemical substance/The level of expressed mRNA in the absence of chemical substance (yeast gene YKL165C): 0.3
The level of expressed mRNA in the presence of chemical substance/The level of expressed mRNA in the absence of chemical substance (yeast gene YKL193C): 1.7
The level of expressed mRNA in the presence of chemical substance/The level of expressed mRNA in the absence of chemical substance (yeast gene YKL198C): 1.4
The level of expressed mRNA in the presence of chemical substance/The level of expressed mRNA in the absence of chemical substance (yeast gene YKR014C): 1.1
The level of expressed mRNA in the presence of chemical substance/The level of expressed mRNA in the absence of chemical substance (yeast gene YLR093C): 1.0
The level of expressed mRNA in the presence of chemical substance/The level of expressed mRNA in the absence of chemical substance (yeast gene YLR110C): 3.2
The level of expressed mRNA in the presence of chemical substance/The level of expressed mRNA in the absence of chemical substance (yeast gene YLR118C): 1.2
The level of expressed mRNA in the presence of chemical substance/The level of expressed mRNA in the absence of chemical substance (yeast gene YLR120C): 1.2
The level of expressed mRNA in the presence of chemical substance/The level of expressed mRNA in the absence of chemical substance (yeast gene YLR136C): 1.2
The level of expressed mRNA in the presence of chemical substance/The level of expressed mRNA in the absence of chemical substance (yeast gene YLR178C): 3.7
The level of expressed mRNA in the presence of chemical substance/The level of expressed mRNA in the absence of chemical substance (yeast gene YLR250W): 1.4
The level of expressed mRNA in the presence of chemical substance/The level of expressed mRNA in the absence of chemical substance (yeast gene YLR251W): 4.1
The level of expressed mRNA in the presence of chemical substance/The level of expressed mRNA in the absence of chemical substance (yeast gene YLR327C): 5.0
The level of expressed mRNA in the presence of chemical substance/The level of expressed mRNA in the absence of chemical substance (yeast gene YLR340W): 1.4
The level of expressed mRNA in the presence of chemical substance/The level of expressed mRNA in the absence of chemical substance (yeast gene YLR356W): 3.1
The level of expressed mRNA in the presence of chemical substance/The level of expressed mRNA in the absence of chemical substance (yeast gene YLR360W): 0.9
The level of expressed mRNA in the presence of chemical substance/The level of expressed mRNA in the absence of chemical substance (yeast gene YLR362W): 1.5
The level of expressed mRNA in the presence of chemical substance/The level of expressed mRNA in the absence of chemical substance (yeast gene YLR391W): 1.4
The level of expressed mRNA in the presence of chemical substance/The level of expressed mRNA in the absence of chemical substance (yeast gene YLR429W): 0.9
The level of expressed mRNA in the presence of chemical substance/The level of expressed mRNA in the absence of chemical substance (yeast gene YML055W): 1.4
The level of expressed mRNA in the presence of chemical substance/The level of expressed mRNA in the absence of chemical substance (yeast gene YMR004W): 2.5
The level of expressed mRNA in the presence of chemical substance/The level of expressed mRNA in the absence of chemical substance (yeast gene YMR091C): 0.9
The level of expressed mRNA in the presence of chemical substance/The level of expressed mRNA in the absence of chemical substance (yeast gene YMR092C): 1.2
The level of expressed mRNA in the presence of chemical substance/The level of expressed mRNA in the absence of chemical substance (yeast gene YMR094W): 1.0
The level of expressed mRNA in the presence of chemical substance/The level of expressed mRNA in the absence of chemical substance (yeast gene YMR104C): 1.1
The level of expressed mRNA in the presence of chemical substance/The level of expressed mRNA in the absence of chemical substance (yeast gene YMR112C): 0.9
The level of expressed mRNA in the presence of chemical substance/The level of expressed mRNA in the absence of chemical substance (yeast gene YMR214W): 0.7
The level of expressed mRNA in the presence of chemical substance/The level of expressed mRNA in the absence of chemical substance (yeast gene YMR219W): 1.5
The level of expressed mRNA in the presence of chemical substance/The level of expressed mRNA in the absence of chemical substance (yeast gene YMR226C): 1.4
The level of expressed mRNA in the presence of chemical substance/The level of expressed mRNA in the absence of chemical substance (yeast gene YMR238W): 1.2
The level of expressed mRNA in the presence of chemical substance/The level of expressed mRNA in the absence of chemical substance (yeast gene YMR255W): 1.2
The level of expressed mRNA in the presence of chemical substance/The level of expressed mRNA in the absence of chemical substance (yeast gene YMR275C): 1.1
The level of expressed mRNA in the presence of chemical substance/The level of expressed mRNA in the absence of chemical substance (yeast gene YMR276W): 1.9
The level of expressed mRNA in the presence of chemical substance/The level of expressed mRNA in the absence of chemical substance (yeast gene YMR314W): 1.8
The level of expressed mRNA in the presence of chemical substance/The level of expressed mRNA in the absence of chemical substance (yeast gene YNL006W): 1.1
The level of expressed mRNA in the presence of chemical substance/The level of expressed mRNA in the absence of chemical substance (yeast gene YNL007C): 1.3
The level of expressed mRNA in the presence of chemical substance/The level of expressed mRNA in the absence of chemical substance (yeast gene YNL039W): 0.4
